Test results: patent publication US11026944B2, “Compositions and methods for treating insomnia” (Eisai R&D Management Co., Ltd., priority 2014, dated 2021)
Read-outs that look alike come from different tables or passages of the source.

Assay: Multiple ascending dose study (002 Study): plasma PK
Type: in vivo, human
Details: for concentration at 8 h / concentration at 10 h / AUC(0-t) / Cmax / Tmax / half-life: human, oral; for concentration at 8 h: plasma at 8 h, read-out: C8 Mean(SD); for concentration at 10 h: plasma at 10 h, read-out: C10 Mean(SD); for AUC(0-t) / Cmax / Tmax / half-life: plasma; for AUC(0-t): read-out: AUC(0-24) Mean(SD); for Cmax: read-out: Cmax Mean(SD); for Tmax: read-out: tmax Median
Method: A total of 48 healthy adult subjects (18 to 55 years) were to be enrolled into 1 of 6 cohorts sequentially in a gradual dose escalation manner, and randomized to receive either compound A or compound A-matched placebo in the evening 30 minutes before habitual bedtime, and after 3 hours fasting, for 14 days. Each cohort was to comprise 6 compound A-treated subjects and 2 placebo-treated subjects. Blood samples were collected for PK analysis at prespecified timepoints, and PD assessments were conducted.
Blood samples for determination of plasma concentrations of compound A were collected at Day 1 predose and postdose 0.5 (30 minutes), 1, 1.5, 2, 3, 4, 5, 6, 8, 10, and 12 hours; Days 2 to 13: predose; Day 14: predose and postdose 0.5 (30 minutes), 1, 1.5, 2, 3, 4, 5, 6, 8, 10, and 12 hours; Day 15: 24 hours after Day 14 dose; Days 16 to 19: 36, 60, 84, and 108 hours after Day 14 dose; Day 21, 24, 26, 28: As close as possible to 156, 228, 276, and 324 hours after Day 14 dose. Plasma concentrations of compound A were measured in the same manner as described in Example 1 and the above noncompartmental plasma PK parameters were calculated for compound A.
Compound A capsules and compound A-matched placebo capsules were available in strengths of 2.5 mg, 10 mg, and 50 mg. All study drugs were administered as daily doses using one or more compound A-capsules or compound A-matched placebo capsules due to the test dose.

[1] = 2.5 mg, Day 1, 2.5 mg once daily in the evening
[2] = 2.5 mg, Day 14, 2.5 mg once daily for 14 days
[3] = 5 mg, Day 1, 5 mg once daily in the evening
[4] = 5 mg, Day 14, 5 mg once daily for 14 days
[5] = 10 mg, Day 1, 10 mg once daily in the evening
[6] = 10 mg, Day 14, 10 mg once daily for 14 days
[7] = 25 mg, Day 1, 25 mg once daily in the evening
[8] = 25 mg, Day 14, 25 mg once daily for 14 days
[9] = 50 mg, Day 1, 50 mg once daily in the evening
[10] = 50 mg, Day 14, 50 mg once daily for 14 days
[11] = 75 mg, Day 1, 75 mg once daily in the evening
[12] = 75 mg, Day 14, 75 mg once daily for 14 days

Cc1ncc(OC[C@@]2(c3cccc(F)c3)C[C@H]2C(=O)Nc2ccc(F)cn2)c(C)n1 [Compound A, (1R,2 S)-2-(((2,4-dimethylpyrimidin-5-yl)oxy)methyl)-2-(3-fluorophenyl)-N-(5-fluoropyridin-2-yl) cyclopropanecarboxamide]
Accumulation (14 days once daily): lower than predicted by the terminal half-life | Cmax Mean(SD) (Day 1, 25 mg once daily in the evening): 92.0(24.0) ng/mL | t1/2 Mean(SD) (Day 14, 50 mg once daily for 14 days): 55.5(21.3) h | AUC(0-24 h) dose proportionality (dose-normalized data, Day 1): increased slightly less than in proportion to dose | Cmax dose proportionality (dose-normalized data, Day 1 and Day 14): increased slightly less than in proportion to dose | AUC(0-24 h) dose proportionality (dose-normalized data, Day 14): increased in approximate proportion to dose | concentration at 8 h (Day 1, 2.5 mg): 2.33 ng/mL | concentration at 8 h (Day 1, 5 mg): 4.4 ng/mL | concentration at 8 h (Day 1, 10 mg): 8.51 ng/mL | concentration at 8 h (Day 1, 25 mg): 24.1 ng/mL | concentration at 8 h (Day 1, 50 mg): 38.1 ng/mL | concentration at 8 h (Day 1, 75 mg): 54.5 ng/mL | concentration at 10 h (Day 1, 2.5 mg): 2.04 ng/mL | concentration at 10 h (Day 1, 5 mg): 3.63 ng/mL | concentration at 10 h (Day 1, 10 mg): 7.72 ng/mL | concentration at 10 h (Day 1, 25 mg): 19.8 ng/mL | concentration at 10 h (Day 1, 50 mg): 32.9 ng/mL | concentration at 10 h (Day 1, 75 mg): 44.2 ng/mL | AUC(0-t) [1]: 59.4 ng·h/mL | Cmax [1]: 10.1 ng/mL | Tmax [1]: 2.02 h | AUC(0-t) [2]: ~120 ng·h/mL | Cmax [2]: ~15 ng/mL | half-life (2.5 mg, Day 14, 2.5 mg once daily for 14 days, read-out: t1/2 Mean(SD) (converted)): ~44 h | Tmax [2]: ~2 h | AUC(0-t) [3]: 108 ng·h/mL | Cmax [3]: 19.4 ng/mL | Tmax [3]: 1.25 h | AUC(0-t) [4]: ~190 ng·h/mL | Cmax [4]: ~24 ng/mL | half-life (5 mg, Day 14, 5 mg once daily for 14 days, read-out: t1/2 Mean(SD) (converted)): ~46 h | Tmax [4]: ~1 h | AUC(0-t) [5]: 187 ng·h/mL | Cmax [5]: 30.4 ng/mL | Tmax [5]: 3.25 h | AUC(0-t) [6]: ~360 ng·h/mL | Cmax [6]: ~47 ng/mL | half-life (10 mg, Day 14, 10 mg once daily for 14 days, read-out: t1/2 Mean(SD) (converted)): ~55 h | Tmax [6]: ~2 h | half-life (10 mg, doses of 10 mg and higher, following Day 14 dosing, read-out: mean terminal half-life (converted)): ~55 h | AUC(0-t) [7]: 549 ng·h/mL | Tmax [7]: 1.5 h | AUC(0-t) [8]: 1100 ng·h/mL | Cmax [8]: 107 ng/mL | half-life (25 mg, Day 14, 25 mg once daily for 14 days, read-out: t1/2 Mean(SD) (converted)): 50.6 h | Tmax [8]: 3 h | half-life (50 mg, 50-mg dose, read-out: effective half-life based on accumulation (converted)): 28 h | AUC(0-t) [9]: 931 ng·h/mL | Cmax [9]: 199 ng/mL | Tmax [9]: 2 h | AUC(0-t) [10]: 2300 ng·h/mL | Cmax [10]: 220 ng/mL | Tmax [10]: 2.02 h | half-life (75 mg, 75-mg dose, read-out: effective half-life based on accumulation (converted)): 39.3 h | AUC(0-t) [11]: 1260 ng·h/mL | Cmax [11]: 223 ng/mL | Tmax [11]: 3 h | AUC(0-t) [12]: 3790 ng·h/mL | Cmax [12]: 420 ng/mL | half-life (75 mg, Day 14, 75 mg once daily for 14 days, read-out: t1/2 Mean(SD) (converted)): 56.2 h | Tmax [12]: 2 h | half-life (2.5- and 5-mg doses, average, read-out: terminal half-life (converted)): ~45 h | half-life (doses ranging from 2.5 to 25 mg, read-out: effective half-life based on accumulation (converted)): 16.9 to 24.7 h
